Data from patent EP0476658B1, “1-Phenyl-3-phenyl-2-propyne-1-ones” (MERRELL DOW PHARMACEUTICALS INC., priority 1990, dated 1992).

Legend:
[1] = tested on: Mustard Oil-Induced Mouse Ear Edema; assay: Mustard oil-induced mouse ear edema; assay type: in vivo; settings: 30 minutes prior to mustard oil, ear weight 30 minutes after, male CD-1 mice
Protocol: Charles River male CD-1 mice weighing 30-60 grams were divided into randomized groups. They were dosed i.p. for 30 minutes prior or orally 1 hour prior to application of 20 ul of mustard oil (10% isothiocyanate in acetone) to the right ear. After 30 minutes the mice were sacrificed and an 8 millimeter diameter circular punch biopsy of each ear was obtained and weighed. The difference between the left (control) and right (treated) ear weights were expressed as percent increase.

[2] = tested on: Carrageenin-Induced Rat Paw Edema; assay: Carrageenin-induced rat paw edema; assay type: in vivo; settings: 75 mg/Kg i.p. one hour prior to carrageenin; paw volume three hours after; male Sprague Dawley rats
Protocol: Charles River male Sprague Dawley rats weighing 90 to 100 grams were used. Inflammation of the left hind paw was induced by a 1% carrageenin solution (0.05 cc), injected into the plantar surface of the paw. The contralateral paw was injected with an equal volume of saline. Drugs were administered 75 mg/Kg i.p. (1 cc/100 grams) one hour prior to paw injection. Three hours following the carrageenin injection the difference in volume of the control and inflamed paw was measured. Each paw was immersed in a well of mercury and the volume of mercury displaced was recorded. Paws were uniformly dipped into the mercury up to the beginning of the hairline. A venous pressure transducer, coupled to an chart recorder, was employed to measure the small volumes of mercury displaced. Each group measurement consists of the average of four rats, each with three separate measurements.

[3] = tested on: Rat PMNL; assay: Measurement of intracellular calcium (Fura-2) in fMLP-stimulated PMNL; assay type: cell-based; settings: preincubation of PMNL with compound 15 minutes at 37°C, fMLP stimulus; second wave = influx of extracellular calcium
Protocol: (§1) Rat PMNL were obtained from exudates resulting from peritoneal injection of 6 mL of 8% sodium caseinate. Eighteen hours after injection rats were killed by carbon dioxide inhalation and the peritoneal cavity lavaged with Hank's balanced salt solution (HBSS). After concentration of the PMNL by centrifugation, contaminating erythrocytes were removed by hypotonic lysis. The PMNL were then washed twice by centrifugation (400 x g for 10 minutes) and resuspended in HBSS. Cell viability was greater than 90% by Trypan Blue exclusion and greater than 90% of the cells were PMNL by Wright-Giemsa stain.
Intracellular calcium levels were obtained using Fura-2 as fluorescent indicator (Grynkiewicz et al., 1985). Fura-2 was loaded into PMNL as the acetoxymethyl ester (Fura-2/AM) using the method of Korchak et al., (1988). Specifically, 1 X 10⁸ PMNL/mL were incubated in HBSS with 10 µM Fura-2/AM for 10 minutes at 37°C. The cells suspension was then diluted ten fold with HBSS and further incubated for another 20 minutes. The cells were then centrifuged (400 x g for 8 minutes at 25°C) and the PMNL (1 x 10⁷ cells/mL) resuspended in HBSS containing 1% bovine serum albumin. Cells were stored at room temperature and used within 3 hours.
Intracellular calcium level determinations were made using a dual wavelength spectrofluorometer (Photon Technology International, New Brunswick, NJ). […]

[4] = tested on: Rat PMNL; assay: Superoxide anion (SOA) production by stimulated PMNL; assay type: cell-based
Protocol: as §1
Aliquots (50 µl) of a rat PMNL suspension (2 x 10⁷ cells/mL in HBSS) were incubated with 50 µl of HBSS containing vehicle (0.3% DMSO) or compound for 30 minutes at 37°C as above. One hundred microliters of buffer containing 5.98 mg/mL of cytochrome C (Sigma Type III) and 0.1 mg/mL catalase, plus the compounds where appropriate, were then added to each sample. A blank for spectrophotometric measurement, containing unstimulated cells in the presence of cytochrome C, catalase and SOD, was also prepared. […] Aliquots (200 µl) of supernatant were then transferred to a second, flat-well microtiter plate and measured spectrophotometrically at 550 nm. […]

[5] = tested on: Rat PMNL; assay: Myeloperoxidase (MPO) release from stimulated PMNL; assay type: cell-based; settings: fMLP (with cytochalasin B), opsonized zymosan or ionomycin stimulation
Protocol: as §1
MPO release was determined using the MPO catalyzed oxidation of O-dianisidine. The experiments were carried out in 96-well microtiter plates (Webster and Henson, 1978). In each well, 50 microliter (µl) aliquots of a PMNL suspension (2 x 10⁷ cells/mL in HBSS) were incubated with 50 µl of HBSS containing vehicle (0.3% DMSO) or inhibitor for 30 minutes at 37°C. The final DMSO concentration never exceeded 0.3% and was constant throughout each experiment. […] The stimuli were added in 50 µl HBSS which also contained the compounds or vehicle, as appropriate, to avoid changing the inhibitor concentration. Cell activation was terminated by centrifugation of the plates at 600 x g for 5 minutes at 22°C. […] Absorbances of the samples were measured at 450 nm. […]

COc1ccc(COc2cccc(C#CC(=O)c3ccccc3)c2)cc1 [MDL 100,225, 1-phenyl-3-[3-(4-methoxybenzyloxy)phenyl]-2-propyne-1-one]
%Inhibition ([1]; 10 mg/Kg i.p.): 25.3 ± 17.8% | %Inhibition ([1]; 30 mg/Kg i.p.): 33.4 ± 14.6% | %Inhibition ([1]; 100 mg/Kg i.p.): 60.9 ± 11.7% | %Inhibition [2]: 24.3% ± 10.3%

O=C(C#Cc1ccc(OCc2ccccc2)cc1)c1ccccc1 [MDL 101,097, 1-phenyl-3-[(4-benzyloxy)phenyl]-2-propyne-1-one]
effect on fMLP-induced intracellular calcium changes [3]: selective concentration-dependent suppression of the second wave of intracellular calcium changes

O=C(C#Cc1ccncc1)c1ccccc1 [MDL 101,098, 1-phenyl-3-(4-pyridinyl)-2-propyne-1-one]
inhibition of superoxide anion production ([4]; PMA and OZ stimulation): inhibited in a dose dependent fashion | inhibition at 1 µM ([4]; Rattus norvegicus, PMNL, inhibition of superoxide anion production, PMA, CONC 1 uM): -20.7%

CN(C)c1ccc(C(=O)C#Cc2ccncc2)cc1 [MDL 102,175, 1-(4-dimethylaminophenyl)-3-(4-pyridinyl)-2-propynel-1-one]
inhibition of release of myeloperoxidase [5]: dose dependent inhibition
